Where two headings read alike, the source gives them in different places.
Tests used:
TEL-SYK = TEL-SYK (Homo sapiens, UniProt P43405); assay: Cell-based proliferation assay on BaF3 model, TEL-SYK
Method: (§1) Cell-based proliferation and viability assay CellTiter-Bleue cell-based survival/proliferation assay (Promega G8080) was performed on BaF3 models.
(§2) A total of 1.10^4 cells/well/50 μl were seeded in a 96-wells plate. Treatment was initiated by addition of a 2× drug solution of ½ serial dilutions ranging from 0 to 10 μM. Cells were grown for 48-72 h at 37° C. and then incubated with 10 μl/well of Promega CellTiter-Bleue reagent for 4 h at 37° C. The amount of formazan dye formed was quantified by its absorbance at 450 nm using a scanning multiwell spectrophotometer (POLARstar Omega, BMG labtech, France). A blank well without cells was used as a background control for the spectrophotometer and all assays were performed in duplicates and the experiments were repeated at least twice.

Myeloperoxidase (MPO) = assay: Myeloperoxidase activity in K/BxN arthritis model; format: in vivo, C57Bl/6 mice
Method: K/B×N serum pools were prepared from arthritic mice at 8 weeks of age. The mice were pre-treated with SYK inhibitors by two per os administration for two days before induction of arthritis. Arthritis was induced in the C57Bl/6 mice (8 weeks of age) by intraperitoneal injection (7.5 μl serum per g weight) at days 0 and 2.
The treatment with SYK inhibitors was continued for 13 days. The control mice were injected with solvent before the induction of arthritis and during the course of the disease. The compounds were dissolved in a solution containing 10% of Tween 80 and 10% 1-2 propandiol. It was prepared before administration.
MPO activity was determined following published protocol (American Journal of Pathology, (2000), 156 (6):2169-2177). Briefly, tissue samples were weighed and suspended in 50 mmol/L potassium phosphate buffer (pH 6.0) containing 5 mg/ml hexadecyltrimethylammonium bromide (Sigma Chemical Co.) at a ratio of 50 mg tissue to 1 ml of buffer. […] Using a microtiter plate scanner, 200 μl of the reaction mixture (containing 16.7 mg of o-dianisidine (Sigma Chemical Co.), […] of distilled H2O, […] of potassium-phosphate buffer, and 50 μl of 1% H2O2) was added to each well containing 7 μl of sample in a standard 96-well plate and three absorbance readings at 5 min intervals at 450 nm were recorded.

c-Ret WT = c-Ret WT (Homo sapiens (Human), UniProt P07949); assay: HTRF kinase assay, c-Ret WT; format: biochemical; settings: enzymatic determination
Chain of c-Ret WT (P07949 29-1114): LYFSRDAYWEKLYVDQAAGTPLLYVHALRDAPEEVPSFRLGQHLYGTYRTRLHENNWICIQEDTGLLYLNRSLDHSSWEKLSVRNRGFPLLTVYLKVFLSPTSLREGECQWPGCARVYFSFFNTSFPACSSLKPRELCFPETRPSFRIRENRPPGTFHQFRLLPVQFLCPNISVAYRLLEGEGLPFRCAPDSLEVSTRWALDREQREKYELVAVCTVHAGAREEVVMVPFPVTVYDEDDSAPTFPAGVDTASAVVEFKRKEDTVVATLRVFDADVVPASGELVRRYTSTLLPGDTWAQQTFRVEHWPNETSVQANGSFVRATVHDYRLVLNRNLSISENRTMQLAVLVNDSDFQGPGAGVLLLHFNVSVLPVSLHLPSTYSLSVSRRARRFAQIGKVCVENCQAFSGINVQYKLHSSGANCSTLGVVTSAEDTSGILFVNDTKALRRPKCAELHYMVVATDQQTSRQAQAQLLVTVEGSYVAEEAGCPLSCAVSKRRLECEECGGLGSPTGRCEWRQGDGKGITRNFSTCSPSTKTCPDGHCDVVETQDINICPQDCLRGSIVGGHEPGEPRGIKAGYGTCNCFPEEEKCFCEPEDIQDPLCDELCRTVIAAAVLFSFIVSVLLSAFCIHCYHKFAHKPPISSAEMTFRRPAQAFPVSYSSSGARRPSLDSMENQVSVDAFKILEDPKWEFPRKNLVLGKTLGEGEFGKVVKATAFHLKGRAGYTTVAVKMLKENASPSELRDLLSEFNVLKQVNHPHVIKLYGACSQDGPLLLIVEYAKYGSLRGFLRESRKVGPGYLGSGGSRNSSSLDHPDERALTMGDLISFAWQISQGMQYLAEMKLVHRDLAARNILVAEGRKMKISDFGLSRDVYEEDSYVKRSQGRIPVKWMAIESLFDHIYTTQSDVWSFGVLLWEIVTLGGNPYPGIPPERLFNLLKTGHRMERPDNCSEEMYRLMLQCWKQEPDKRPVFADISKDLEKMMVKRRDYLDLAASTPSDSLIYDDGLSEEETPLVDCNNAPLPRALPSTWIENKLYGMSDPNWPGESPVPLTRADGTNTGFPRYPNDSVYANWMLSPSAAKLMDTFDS
Method: Most of the kinases tested in this study were cloned, expressed and purified in the facilities of the inventors. They were expressed either as N-terminus hexahistidine-, hexahistidine-asparagine- or GST-tagged enzymes in a baculovirus or in a Colibacille expression system. Remaining enzymes (JAKs) were purchased from Millipore or Proqinase. For each enzyme, steady state kinetic parameters were determined and validated with known inhibitors.
The analysis of the effect of compounds on kinase activity was assessed with the HTRF® KinEASE assay (Cisbio International), an immuno-assay based on the quantification of the level of phosphorylation of a biotinylated peptide substrate using anti-phospho-specific antibody labeled with Europium (Eu^3+) cryptate. This assay comprises two steps: —an enzymatic step, during which the peptide substrate, the kinase, ATP, Mg^2+ and/or Mn^2+ are incubated with varying concentration of drug (from 0 to 10 μM); —a detection step, at the end of the reaction (stopped by addition of EDTA which chelates Mg^2+), the antibody anti-phospho peptide-Eu^3+ (emission 620 nm) and streptavidin XL-665 (emission 665 nm) are added to the reaction mix. […] Results are expressed in delta fluorescence (DF) unit defined as follow DF %=[(ratio−ratio blank)/(ratio blank)]*100, where ratio=(665 nm/620 nm)*10^4. […]

[1] = WST-1 cell survival/proliferation assay on human cardiomyocytes; format: cell-based; settings: Human Cardiac Myocyte
Method: WST-1 cell survival/proliferation assay (Roche Diagnostic ref No 1644807) was performed on both primary human adult cardiomyocytes and rat neonatal cardiac myocytes.
Human cardiomyocytes were isolated from normal human ventricle tissue of the adult heart and were able to proliferate for a number of passage. Neonatal ventricular Clonetics® Rat Cardiac Myocytes (P1-3) retained their contractile property and were electrophysiologically active in culture. 1.10^4 primary rat cells or 2-2.5 10^4 adult human cells were plated per well of a 96 wells plates. The cells were allowed to adhere to the plates for 5 days before drug treatment. Treatment was initiated by addition of a 2× drug solution of ½ serial dilutions ranging from 0 to 10 μM. Cells were grown for 48 h at 37° C. and then incubated with 10 μl/well of WST-1 reagent for 4 h at 37° C. The amount of formazan dye formed was quantified by its absorbance at 450 nm using a scanning multiwell spectrophotometer (MultiSkan MS, Thermo-LabSystems, France). A blank well without cells was used as a background control for the spectrophotometer and all assays were performed in triplicate.

KIT D816V = KIT D816V (Homo sapiens (Human), UniProt P10721, D816V); assay: Cell-based proliferation assay on BaF3 model, KIT D816V
Chain of KIT D816V (P10721 26-976 D816V): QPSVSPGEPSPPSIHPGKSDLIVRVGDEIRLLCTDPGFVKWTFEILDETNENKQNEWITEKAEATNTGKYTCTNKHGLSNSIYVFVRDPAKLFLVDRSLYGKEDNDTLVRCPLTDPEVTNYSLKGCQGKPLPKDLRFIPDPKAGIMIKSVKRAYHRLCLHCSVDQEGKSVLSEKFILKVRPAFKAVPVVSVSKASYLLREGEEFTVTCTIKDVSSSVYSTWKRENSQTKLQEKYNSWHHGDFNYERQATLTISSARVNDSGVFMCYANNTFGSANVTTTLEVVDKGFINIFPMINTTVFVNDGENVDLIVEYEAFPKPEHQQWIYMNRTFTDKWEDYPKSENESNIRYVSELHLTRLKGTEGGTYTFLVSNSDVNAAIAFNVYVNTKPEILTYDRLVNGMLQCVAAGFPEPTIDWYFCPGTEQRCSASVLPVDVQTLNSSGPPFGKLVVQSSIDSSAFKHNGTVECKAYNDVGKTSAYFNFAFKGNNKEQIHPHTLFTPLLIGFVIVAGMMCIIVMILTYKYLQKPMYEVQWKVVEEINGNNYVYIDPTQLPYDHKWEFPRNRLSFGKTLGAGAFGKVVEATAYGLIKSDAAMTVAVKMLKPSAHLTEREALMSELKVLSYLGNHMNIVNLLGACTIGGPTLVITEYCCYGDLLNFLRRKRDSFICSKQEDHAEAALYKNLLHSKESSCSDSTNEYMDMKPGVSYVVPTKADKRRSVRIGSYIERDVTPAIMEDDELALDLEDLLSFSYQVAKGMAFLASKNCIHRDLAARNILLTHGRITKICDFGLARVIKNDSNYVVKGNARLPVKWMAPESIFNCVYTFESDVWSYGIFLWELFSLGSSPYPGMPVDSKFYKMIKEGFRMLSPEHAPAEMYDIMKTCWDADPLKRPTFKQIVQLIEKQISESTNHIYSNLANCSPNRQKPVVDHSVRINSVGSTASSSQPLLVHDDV
Method: as §1, §2

SMILES: Cc1ccnc(Nc2cccc(-c3cnc(N4CCNC(=O)C45CC5)o3)c2)n1 [Compound 001, 4-{5-[3-(4-Methyl-pyrimidin-2-ylamino)-phenyl]-oxazol-2-yl}-4,7-diaza-spiro[2.5]octan-8-one]
- IC50 (TEL-SYK; read-out: Kinase activity profile IC50 Tel-Syk): 272 nM
- IC50 (TEL-SYK; read-out: TEL-SYK IC50): 270 nM
- MPO activity (Myeloperoxidase (MPO); KBxN + 15 mg/kg b.i.d.): 1.031 ± 0.24 U/ml
- MPO activity (Myeloperoxidase (MPO); KBxN + 50 mg/kg b.i.d.): 0.348 ± 0.08 U/ml
- IC50 (c-Ret WT): 10 µM
- IC50 at 48 h ([1]; 48 h, read-out: Drug-induced cytotoxicity IC50, Hu-CM): 10 µM
- viability at 48 h, 1 µM ([1]; primary human adult cardiomyocytes, 1 μM, read-out: % cell viable at 1 μM, Hu-CM): 14%
- IC50 (KIT D816V): 10 µM

From US10053455B2, “Diazaspiroalkaneone-substituted oxazole derivatives as spleen tyrosine kinase inhibitors” (AB SCIENCE, priority 2014, dated 2018)
